Each structure is given as a SMILES string.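 48-hour exposure; five concentrations; linearly interpolated endpoints. The concentration for 50% growth inhibition is given as GI50. TGI: concentration producing complete growth inhibition.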

Among the test systems are SK-MEL-28 melanoma; MCF7 breast; PC-3 prostate; SN12C renal; SNB-75 CNS; SR leukemia; M14 melanoma; TK-10 renal; SK-MEL-2 melanoma; 786-0 renal.
Holding throughout (assay): NCI anticancer screen, dose series, 48 h

Turning to `CCCCCCCCCCCC1=NC(C)(C)CN1C(C)C`, the GI50 is 1.78 µM with SK-MEL-28 melanoma; 2810 nM with MCF7 breast; 2120 nM in the experiment with PC-3 prostate; 4.04 µM with SN12C renal; 6.04 µM in the experiment with SNB-75 CNS; 1710 nM with SR leukemia. The GI50 was 1.89 µM in the experiment with M14 melanoma, 4.02 µM in the experiment on TK-10 renal, 3.2 µM in the experiment on SK-MEL-2 melanoma and 3.57 µM in the experiment on 786-0 renal. Besides, the TGI in the experiment with SK-MEL-28 melanoma is 3.37 µM; with MCF7 breast, 8.68 µM; with PC-3 prostate it was 11.1 µM; in the experiment on SN12C renal, 16.7 µM; in the experiment with SNB-75 CNS, 19.2 µM; in the experiment with SR leukemia, 4.32 µM. For the same molecule, the TGI with M14 melanoma was determined as 3.57 µM; in the experiment with TK-10 renal it was 16.1 µM; in the experiment with SK-MEL-2 melanoma, 10 µM; with 786-0 renal, 13 µM.
Take `Cc1ccc(/C=C/C(=O)c2ccc(F)cc2)s1`: the GI50 in the experiment on SK-MEL-28 melanoma was 2.94 µM; in the experiment with MCF7 breast, 3660 nM; with PC-3 prostate it was 2640 nM; with SN12C renal it was 6.47 µM; with SNB-75 CNS, 13.4 µM; in the experiment on SR leukemia it was 2860 nM. For the same molecule, the GI50 was 7.89 µM with M14 melanoma, 1.84 µM in the experiment on TK-10 renal, 4.35 µM in the experiment with SK-MEL-2 melanoma and 3.41 µM in the experiment on 786-0 renal. In addition, the TGI with SK-MEL-28 melanoma worked out at 7.31 µM; in the experiment on MCF7 breast, 16.9 µM; in the experiment with PC-3 prostate it was 7.11 µM; with SN12C renal, 19.8 µM; with SNB-75 CNS, 26.5 µM; with SR leukemia, 20 µM. For the same molecule, the TGI is 26.7 µM in the experiment on M14 melanoma, 4.33 µM with TK-10 renal, 15.6 µM in the experiment on SK-MEL-2 melanoma and 14.1 µM with 786-0 renal.
As to `Cc1ccc(NC(=O)c2ccoc2)cc1-c1ccc(C(=O)NCC2CC2)cc1`, the GI50 was more than 25 µM in the experiment with SK-MEL-28 melanoma; more than 16100 nM with MCF7 breast; more than 17000 nM with PC-3 prostate; more than 25 µM with SN12C renal; more than 25 µM in the experiment with SNB-75 CNS; more than 25000 nM in the experiment with SR leukemia. Besides, the GI50 with M14 melanoma, in the experiment on TK-10 renal, with SK-MEL-2 melanoma and in the experiment on 786-0 renal was more than 25 µM in each case. Also, the TGI in the experiment with SK-MEL-28 melanoma, in the experiment on MCF7 breast, in the experiment with PC-3 prostate, in the experiment on SN12C renal, with SNB-75 CNS and in the experiment with SR leukemia was more than 25 µM throughout. In addition, the TGI in the experiment with M14 melanoma, in the experiment with TK-10 renal, with SK-MEL-2 melanoma and with 786-0 renal was more than 25 µM each time.
For the molecule `CC(C)Cn1cnc2c(N)nc3ccccc3c21`, the GI50 is more than 74.9 µM in the experiment with SK-MEL-28 melanoma; 29400 nM with MCF7 breast; 34700 nM in the experiment with PC-3 prostate; 78.8 µM with SN12C renal; 41.4 µM with SNB-75 CNS; more than 100000 nM in the experiment on SR leukemia. In addition, the GI50 in the experiment on M14 melanoma was 43.9 µM; in the experiment with TK-10 renal, 94.8 µM; with SK-MEL-2 melanoma it was 41.5 µM; in the experiment with 786-0 renal, 25.2 µM. Further, the TGI with SK-MEL-28 melanoma, in the experiment with MCF7 breast, in the experiment on PC-3 prostate, with SN12C renal, in the experiment with SNB-75 CNS and with SR leukemia was more than 100 µM throughout. The TGI is more than 100 µM in the experiment with M14 melanoma, more than 100 µM in the experiment with TK-10 renal, more than 100 µM in the experiment on SK-MEL-2 melanoma and more than 87.3 µM in the experiment with 786-0 renal.
Consider `C=CCn1c(SCC(=O)Nc2ccc(C(=O)/C=C/c3cc(OC)c(OC)c(OC)c3)cc2)nnc1-c1cc(OC)c(OC)c(OC)c1`, for which the GI50 in the experiment on SK-MEL-28 melanoma is 3.29 µM; in the experiment with MCF7 breast, 1830 nM; in the experiment with PC-3 prostate, 4290 nM; in the experiment on SN12C renal it was 4.74 µM; in the experiment with SNB-75 CNS, 2.71 µM; in the experiment on SR leukemia, 2340 nM. Also, the GI50 in the experiment on M14 melanoma is 2.96 µM; in the experiment on TK-10 renal it was 23.3 µM; in the experiment on SK-MEL-2 melanoma, 14.8 µM; in the experiment on 786-0 renal, 1.85 µM. Besides, the TGI was 32.3 µM in the experiment on SK-MEL-28 melanoma; 10.5 µM in the experiment on MCF7 breast; 22.6 µM in the experiment on PC-3 prostate; more than 100 µM in the experiment on SN12C renal; 27.6 µM in the experiment with SNB-75 CNS; more than 100 µM in the experiment with SR leukemia. For the same molecule, the TGI with M14 melanoma is 11.8 µM; in the experiment with TK-10 renal, 58.8 µM; in the experiment on SK-MEL-2 melanoma it was 45.3 µM; in the experiment on 786-0 renal it was 4.01 µM.
Turning to `O=C(Nc1ccccc1/C=C/c1n[nH]c2ccccc12)c1ccccc1`, the GI50 with SK-MEL-28 melanoma is 4.31 µM; with MCF7 breast, 505 nM; with PC-3 prostate it was 2150 nM; in the experiment on SN12C renal, 2 µM; with SNB-75 CNS it was 9.04 µM; in the experiment with SR leukemia, 2870 nM. Also, the GI50 in the experiment with M14 melanoma was 3.32 µM; with TK-10 renal, 4.85 µM; in the experiment with SK-MEL-2 melanoma, 5.03 µM; in the experiment on 786-0 renal, 12.6 µM. Further, the TGI in the experiment with SK-MEL-28 melanoma was found to be 17.7 µM; with MCF7 breast, 13.2 µM; in the experiment on PC-3 prostate it was 7.58 µM; in the experiment on SN12C renal it was 5.4 µM; in the experiment with SNB-75 CNS, 23.9 µM; in the experiment with SR leukemia, 13.7 µM. The TGI with M14 melanoma is 15 µM; in the experiment with TK-10 renal, 16 µM; in the experiment with SK-MEL-2 melanoma it was 16.5 µM; in the experiment on 786-0 renal, 26.7 µM.
Take `CN1CCN(CCCOC(=O)c2c3c(n4ccccc24)C(=O)c2ncccc2C3=O)CC1`: the GI50 in the experiment on SK-MEL-28 melanoma was 0.08 µM; in the experiment with MCF7 breast, less than 10 nM; in the experiment on PC-3 prostate, less than 23.2 nM; in the experiment on SN12C renal, less than 0.01 µM; in the experiment on SNB-75 CNS it was less than 0.0142 µM; in the experiment with SR leukemia, less than 10 nM. Moreover, the GI50 was less than 0.0149 µM in the experiment on M14 melanoma, 0.113 µM with TK-10 renal, 0.0313 µM with SK-MEL-2 melanoma and less than 0.01 µM in the experiment on 786-0 renal. In addition, the TGI in the experiment with SK-MEL-28 melanoma was 4.25 µM; with MCF7 breast it was 0.0178 µM; in the experiment on PC-3 prostate, 16.7 µM; in the experiment with SN12C renal it was 0.294 µM; in the experiment on SNB-75 CNS it was 0.105 µM; in the experiment with SR leukemia it was more than 100 µM. For the same molecule, the TGI with M14 melanoma was determined as 0.253 µM; in the experiment on TK-10 renal, 21.6 µM; with SK-MEL-2 melanoma, 0.274 µM; in the experiment on 786-0 renal, 0.0407 µM.
